Measured values as given in PubChem BioAssay (NCI).
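Assay format: 96-well plates, 48-hour exposure. Here, GI50 denotes the concentration required for 50% inhibition of growth. Definition used: TGI = concentration required for complete inhibition of growth.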

Experiments:
Assay in all cases: growth of human tumour cells (NCI), 48 h
[1] = tested on: 786-0 renal
[2] = tested on: A498 renal
[3] = tested on: A549 NSCLC
[4] = tested on: ACHN renal
[5] = tested on: BT-549 breast
[6] = tested on: CAKI-1 renal
[7] = tested on: CCRF-CEM leukemia
[8] = tested on: COLO 205 colon
[9] = tested on: DU-145 prostate
[10] = tested on: EKVX NSCLC
[11] = tested on: HCC-2998 colon
[12] = tested on: HCT-116 colon
[13] = tested on: HCT-15 colon
[14] = tested on: HL-60(TB) leukemia
[15] = tested on: HOP-62 NSCLC
[16] = tested on: HOP-92 NSCLC
[17] = tested on: HS 578T breast
[18] = tested on: HT29 colon
[19] = tested on: IGROV1 ovarian
[20] = tested on: K-562 leukemia
[21] = tested on: KM12 colon
[22] = tested on: LOX IMVI melanoma
[23] = tested on: M14 melanoma
[24] = tested on: MALME-3M melanoma
[25] = tested on: MCF7 breast
[26] = tested on: MDA-MB-231 breast
[27] = tested on: MDA-MB-435
[28] = tested on: MOLT-4 leukemia
[29] = tested on: NCI-H226 lung
[30] = tested on: NCI-H23 lung
[31] = tested on: NCI-H460 lung
[32] = tested on: NCI-H522 lung
[33] = tested on: NCI/ADR-RES ovarian
[34] = tested on: OVCAR-3 ovarian
[35] = tested on: OVCAR-4 ovarian
[36] = tested on: OVCAR-5 ovarian
[37] = tested on: OVCAR-8 ovarian
[38] = tested on: PC-3 prostate
[39] = tested on: RPMI-8226 leukemia
[40] = tested on: RXF 393 renal
[41] = tested on: SF-268 CNS
[42] = tested on: SF-295 CNS
[43] = tested on: SF-539 CNS
[44] = tested on: SK-MEL-2 melanoma
[45] = tested on: SK-MEL-28 melanoma
[46] = tested on: SK-MEL-5 melanoma
[47] = tested on: SK-OV-3 ovarian
[48] = tested on: SN12C renal
[49] = tested on: SNB-19 CNS
[50] = tested on: SNB-75 CNS
[51] = tested on: SR leukemia
[52] = tested on: SW-620 colon
[53] = tested on: T-47D breast
[54] = tested on: TK-10 renal
[55] = tested on: U251 CNS
[56] = tested on: UACC-257 melanoma
[57] = tested on: UACC-62 melanoma
[58] = tested on: UO-31 renal

In the case of COc1cc(/C=N/Nc2ncnc3c2cnn3Cc2ccccc2)ccc1O, the GI50 [1] is reported as 6.92 µM, the TGI [1] is reported as 18.8 µM and the GI50 [2] is reported as > 18.3 µM. The TGI [2] was > 25 µM, the GI50 [3] was 8.69 µM and the TGI [3] was > 23.9 µM. The GI50 [4] was 4.13 µM, the TGI [4] was > 25 µM and the GI50 [5] was 12.2 µM. For the same compound, the TGI [5] was > 25 µM, the GI50 [6] was > 19.9 µM and the TGI [6] was > 25 µM. For the same compound, the GI50 [7] was > 6.7 µM, the TGI [7] was > 25 µM and the GI50 [8] was 10.6 µM. The TGI [8] was > 25 µM, the GI50 [9] was 12.2 µM and the TGI [9] was > 25 µM. The GI50 [10] was > 25 µM, the TGI [10] was > 25 µM and the GI50 [11] was 15.2 µM. The TGI [11] was > 25 µM, the GI50 [12] was 14 µM and the TGI [12] was > 25 µM. The GI50 [13] was > 25 µM, the TGI [13] was > 25 µM and the GI50 [14] was > 18.5 µM. The TGI [14] was > 25 µM, the GI50 [15] was 5.24 µM and the TGI [15] was 11.8 µM. It also gave a GI50 [16] of 0.83 µM, a TGI [16] of 8.86 µM and a GI50 [17] of 4.16 µM. For the same compound, the TGI [17] was > 21.2 µM, the GI50 [18] was 14.9 µM and the TGI [18] was > 25 µM. For the same compound, the GI50 [19] was 14.8 µM, the TGI [19] was > 25 µM and the GI50 [20] was > 6.57 µM. The TGI [20] was > 25 µM, the GI50 [21] was 7.68 µM and the TGI [21] was > 25 µM. For the same compound, the GI50 [22] was > 17.7 µM, the TGI [22] was > 25 µM and the GI50 [23] was > 25 µM. For the same compound, the TGI [23] was > 25 µM, the GI50 [24] was 7.14 µM and the TGI [24] was > 25 µM. The GI50 [25] was > 18 µM, the TGI [25] was > 25 µM and the GI50 [26] was 3.43 µM. For the same compound, the TGI [26] was > 25 µM, the GI50 [27] was > 23.1 µM and the TGI [27] was > 25 µM. The GI50 [28] was > 25 µM, the TGI [28] was > 25 µM and the GI50 [29] was 10.3 µM. For the same compound, the TGI [29] was > 25 µM, the GI50 [30] was 11.9 µM and the TGI [30] was > 25 µM. For the same compound, the GI50 [31] was 8.98 µM, the TGI [31] was > 25 µM and the GI50 [32] was 5.37 µM. The TGI [32] was > 22.8 µM, the GI50 [33] was 7.35 µM and the TGI [33] was > 25 µM. For the same compound, the GI50 [34] was 6.8 µM, the TGI [34] was > 19.7 µM and the GI50 [35] was 5.05 µM. The TGI [35] was 15.3 µM, the GI50 [36] was > 25 µM and the TGI [36] was > 25 µM. The GI50 [37] was 5.85 µM, the TGI [37] was > 19.8 µM and the GI50 [38] was 11.7 µM. For the same compound, the TGI [38] was > 25 µM, the GI50 [39] was > 18.5 µM and the TGI [39] was > 25 µM. For the same compound, the GI50 [40] was 4.7 µM, the TGI [40] was 19.2 µM and the GI50 [41] was 5.34 µM. For the same compound, the TGI [41] was 14.3 µM, the GI50 [42] was > 25 µM and the TGI [42] was > 25 µM. The GI50 [43] was 8.12 µM, the TGI [43] was 24.4 µM and the GI50 [44] was 16.7 µM. The TGI [44] was > 25 µM, the GI50 [45] was > 19.6 µM and the TGI [45] was > 25 µM. The GI50 [46] was 12.2 µM, the TGI [46] was > 25 µM and the GI50 [47] was 5.99 µM. For the same compound, the TGI [47] was 16.8 µM, the GI50 [48] was > 15.8 µM and the TGI [48] was > 25 µM. The GI50 [49] was 9.22 µM, the TGI [49] was > 25 µM and the GI50 [50] was 3.29 µM. The TGI [50] was 11.4 µM, the GI50 [51] was > 25 µM and the TGI [51] was > 25 µM. The GI50 [52] was > 25 µM, the TGI [52] was > 25 µM and the GI50 [53] was 9.57 µM. For the same compound, the TGI [53] was > 25 µM, the GI50 [54] was 6.39 µM and the TGI [54] was 19.1 µM. The GI50 [55] was 6.51 µM, the TGI [55] was > 25 µM and the GI50 [56] was > 16.7 µM. The TGI [56] was > 25 µM, the GI50 [57] was 10.4 µM and the TGI [57] was > 25 µM. It also gave a GI50 [58] of 1.93 µM and a TGI [58] of 11.9 µM.
